Test results as given in PubChem BioAssay AID977605 (Broad Institute, 2014).
The source made the active and inactive calls.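 How the source made its calls: active means fitted curve reaches 40% activation below the top valid tested dose, in every test run; inconclusive means test runs disagree on the call; inactive means the rest, including effects opposite to the expected direction.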

assay: endothelial E-selectin upregulation by compounds – imaging, HUVEC, cherry-picked samples, dose response (AID 977605); settings: HUVEC E-selectin immunostaining, at 19.5 µM (top of the series), percent of TNF-alpha response over vehicle;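 further: signal is the share of imaged cells scored positive for E-selectin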

| SMILES | activation |
| --- | --- |
| Nc1nnc(SCc2nnc(-c3ccccc3)o2)s1 | 0.69% (inactive) |
| CC(C)NC(=O)Nc1ccc2c(c1)CC(=O)N([C@H](C)CO)C[C@H](C)[C@@H](CN(C)Cc1ccc(Oc3ccccc3)cc1)O2 | -0.055% (inactive) |
| CCn1c(CNc2ccc(Cl)cc2)nnc1SCC#N | -0.124% (inactive) |
| C[C@@H]1CN([C@@H](C)CO)C(=O)Cc2cc(NS(=O)(=O)c3cccs3)ccc2O[C@H]1CN(C)C(=O)Nc1ccc(F)cc1 | -0.169% (inactive) |
| CC(C)NC(=O)Nc1ccc2c(c1)CC(=O)N([C@@H](C)CO)C[C@H](C)[C@H](CN(C)Cc1ccc(C(=O)O)cc1)O2 | 0.025% (inactive) |
| COc1ccc(CN(C)C[C@H]2Oc3ccc(NC(=O)c4ccncc4)cc3C(=O)N([C@H](C)CO)C[C@@H]2C)cc1 | 0.118% (inactive) |
| C[C@@H]1CN([C@@H](C)CO)C(=O)Cc2cc(NC(=O)c3ccncc3)ccc2O[C@@H]1CN(C)C(=O)Nc1ccc(C(F)(F)F)cc1 | -0.044% (inactive) |
| Cc1ccc(S(=O)(=O)Nc2ccc3c(c2)C(=O)N([C@H](C)CO)C[C@@H](C)[C@H](CN(C)Cc2ccc(-c4ccccc4)cc2)O3)cc1 | -0.157% (inactive) |
| C[C@@H]1CN([C@H](C)CO)C(=O)c2cccc(NC(=O)Nc3ccc(F)cc3)c2O[C@H]1CN(C)Cc1ccncc1 | -0.015% (inactive) |
| Cc1ccc(S(=O)(=O)N2CCN(C(=O)Cc3sc(C)nc3-c3ccc(F)cc3)CC2)c(C)c1 | -0.025% (inactive) |
| COc1ccc(N2C(=O)c3ccccc3C(C)(C)C2=O)cc1 | -0.152% (inactive) |
| CC1CC(=O)Nc2ccccc2N1S(=O)(=O)c1cccs1 (stereo not given) | -0.177% (inactive) |
| CC1CCC(NC(=O)CCN2C(=O)C3C4C=CC(C4)C3C2=O)CC1 (stereo not given) | 0.46% (inactive) |
| C[C@@H]1CCCCO[C@@H](CN(C)S(C)(=O)=O)[C@@H](C)CN([C@H](C)CO)C(=O)c2cc(NC(=O)CCCN(C)C)ccc2O1 | -0.145% (inactive) |
| COC(=O)c1noc(C)c1-c1ccnn1C(=O)c1ccc(C)cc1 | 0.122% (inactive) |
| C[C@@H]1CN([C@H](C)CO)C(=O)Cc2cc(NC(=O)CCN3CCOCC3)ccc2O[C@H]1CN(C)S(C)(=O)=O | 0.606% (inactive) |
| C[C@@H]1CN([C@H](C)CO)C(=O)c2cc(Br)cnc2O[C@@H]1CN(C)C(=O)C1CC1 | -0.087% (inactive) |
| CC(C)NC(=O)Nc1ccc2c(c1)C(=O)N([C@@H](C)CO)C[C@H](C)[C@H](CN(C)Cc1ccc(C(F)(F)F)cc1)O2 | 0.054% (inactive) |
| C[C@H]1CN([C@@H](C)CO)C(=O)c2cccc(NS(C)(=O)=O)c2O[C@H]1CN(C)S(C)(=O)=O | 0.973% (inactive) |
| C[C@@H]1CN([C@@H](C)CO)C(=O)c2cc(NC(=O)Nc3ccc4c(c3)OCO4)ccc2O[C@H]1CN(C)C | -0.091% (inactive) |
| C[C@H](CO)N1C[C@H](C)[C@H](CN(C)CC2CC2)Oc2ccc(NC(=O)Cc3ccccc3)cc2CC1=O | 0.216% (inactive) |
| Cc1ccc(C(=O)NCC(=O)Nc2ccncc2)cc1C | -0.08% (inactive) |
| Cc1ccc(S(=O)(=O)NNC(=O)c2cccc(O)c2)cc1 | -0.007% (inactive) |
| C[C@@H]1CN([C@@H](C)CO)C(=O)Cc2cc(NC(=O)C3CC3)ccc2O[C@@H]1CN(C)Cc1ccc2c(c1)OCO2 | -0.129% (inactive) |
| C[C@H](CO)N1C[C@H](C)[C@H](CN(C)Cc2ccc(Cl)c(Cl)c2)Oc2ccc(NC(=O)Nc3ccc4c(c3)OCO4)cc2CC1=O | -0.197% (inactive) |
| CNC[C@@H]1Oc2ccc(NS(C)(=O)=O)cc2C(=O)N([C@@H](C)CO)C[C@@H]1C | -0.177% (inactive) |
| COc1ccc(NC(=O)N(C)C[C@@H]2Oc3ccc(NC(=O)c4ccncc4)cc3CC(=O)N([C@H](C)CO)C[C@@H]2C)cc1 | -0.135% (inactive) |
| C[C@H](CO)N1C[C@H](C)[C@H](CN(C)S(=O)(=O)c2ccc(Cl)cc2)Oc2c(NC(=O)C3CCCCC3)cccc2C1=O | 0.576% (inactive) |

same assay, conditions: HUVEC E-selectin immunostaining, at 21 µM (top of the series), percent of TNF-alpha response over vehicle

| SMILES | activation |
| --- | --- |
| Cc1noc(C)c1NC(=O)Nc1ccc2c(c1)CC(=O)N([C@H](C)CO)C[C@H](C)[C@H](CN(C)S(=O)(=O)c1ccccc1)O2 | -0.132% (inactive) |
| C[C@@H]1CN([C@H](C)CO)C(=O)Cc2cc(NC(=O)Nc3ccc(F)cc3)ccc2O[C@@H]1CN(C)S(=O)(=O)c1cn(C)cn1 | -0.103% (inactive) |
| C[C@H]1CN([C@@H](C)CO)C(=O)c2cccc(NC(=O)c3ccc(-c4nccs4)cc3)c2O[C@H]1CN(C)Cc1ccc(Oc2ccccc2)cc1 | 0.436% (inactive) |
| C[C@@H]1CN([C@H](C)CO)C(=O)c2cccc(NC(=O)C3CC3)c2O[C@H]1CN(C)CC1CC1 | -0.061% (inactive) |
| C[C@H](CO)N1C[C@H](C)[C@@H](CN(C)S(=O)(=O)c2ccc(F)cc2)Oc2ccc(NS(C)(=O)=O)cc2CC1=O | 0.279% (inactive) |
| CC(C)NC(=O)N(C)C[C@H]1Oc2ccc(NC(=O)CCC(F)(F)F)cc2CC(=O)N([C@@H](C)CO)C[C@@H]1C | -0.117% (inactive) |
| C[C@H](CO)N1C[C@H](C)[C@H](CN(C)S(C)(=O)=O)Oc2c(NS(C)(=O)=O)cccc2C1=O | -0.054% (inactive) |
